The values that follow are results of earlier work, collected in patent US9603803B2, “Process for preparing spray dried formulations of 4-[[6-amino-5-bromo-2-[(4-cyanophenyl)amino]-4-pyrimidinyl]oxy]-3,5-dimethylbenzonitrile” (JANSSEN SCIENCES IRELAND UC, priority 2006, dated 2017).

For the compound `Cc1cc(C#N)cc(C)c1Oc1nc(Nc2ccc(C#N)cc2)nc(N)c1Br` [TMC125, 4-[[6-amino-5-bromo-2-[(4-cyanophenyl)amino]-4-pyrimidinyl]oxy]-3,5-dimethylbenzonitrile], the water-solubility result is recorded as “poor”. In the series on wild type HIV, the “activity against wild type HIV” value is reported as “pronounced activity”. The “activity against many mutated variants” value in the series on many mutated variants is listed as “pronounced activity”.
